System: 931267-113-T-J1-PDC KRAS spheroid with HUVEC/MSC, viability
Test: Anticancer human tumor 931267-113-T-J1-PDC patient-derived colon adenocarcinoma cell line growth inhibition [KRAS2]
Conditions: for IC50: curve of first compound; for viability, T/C: stronger effect = lower value
Method in brief: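 KRAS-mutant tumor cells were grown as spheroids with HUVEC endothelial cells and human MSCs as stroma. Targeted agents were tested alone and with KRAS pathway inhibitors. Doses started at or near clinical Cmax, or 10 microM, descending half-log.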

[1] = second compound 0.1 µM, first compound 0.0316 µM
[2] = second compound 0.1 µM, first compound 0.1 µM
[3] = second compound 0.1 µM, first compound 0.316 µM
[4] = second compound 0.1 µM, first compound 1 µM
[5] = second compound 0.1 µM, first compound 3.16 µM
[6] = second compound 0.316 µM, first compound 0.0316 µM
[7] = second compound 0.316 µM, first compound 0.1 µM
[8] = second compound 0.316 µM, first compound 0.316 µM
[9] = second compound 0.316 µM, first compound 1 µM
[10] = second compound 0.316 µM, first compound 3.16 µM
[11] = second compound 1 µM, first compound 0.0316 µM
[12] = second compound 1 µM, first compound 0.1 µM
[13] = second compound 1 µM, first compound 0.316 µM
[14] = second compound 1 µM, first compound 1 µM
[15] = second compound 1 µM, first compound 3.16 µM
[16] = second compound 3.16 µM, first compound 0.0316 µM
[17] = second compound 3.16 µM, first compound 0.1 µM
[18] = second compound 3.16 µM, first compound 0.316 µM
[19] = second compound 3.16 µM, first compound 1 µM
[20] = second compound 3.16 µM, first compound 3.16 µM
[21] = second compound 10 µM, first compound 0.0316 µM
[22] = second compound 10 µM, first compound 0.1 µM
[23] = second compound 10 µM, first compound 0.316 µM
[24] = second compound 10 µM, first compound 1 µM
[25] = second compound 10 µM, first compound 3.16 µM
[26] = second compound 0.1 µM, first compound 10 µM
[27] = second compound 0.316 µM, first compound 10 µM
[28] = second compound 1 µM, first compound 10 µM
[29] = second compound 3.16 µM, first compound 10 µM
[30] = second compound 10 µM, first compound 10 µM
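Note: compound exposure lasted 7 days before the readout.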
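Throughout, for viability, T/C: 100% = DMSO vehicle control viability.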

`CC1COCCN1c1cc(-c2ccnn2C)c2ccnc(-c3ccn[nH]3)c2n1` (stereo not given) + C=CC(=O)N1CCN(c2nc(=O)n(-c3c(C)ccnc3C(C)C)c3nc(-c4c(O)cccc4F)c(F)cc23)C(C)C1 was tested, and the IC50 (second compound 0.1 µM) was 42 nM, the IC50 (second compound 0.316 µM) was 50.4 nM and the IC50 (second compound 1 µM) was 44.4 nM. For the same molecule, the IC50 (second compound 3.16 µM) was 53.5 nM, the IC50 (second compound 10 µM) was 28.1 nM and the viability, T/C (second compound 0.1 µM, first compound 0.01 µM) was 95.5%. It also gave a viability, T/C [1] of 58%, a viability, T/C [2] of 25.9% and a viability, T/C [3] of 17.3%. It also gave a viability, T/C [4] of 20%, a viability, T/C [5] of 19.7% and a viability, T/C (second compound 0.316 µM, first compound 0.01 µM) of 90.1%. For the same molecule, the viability, T/C [6] was 68.7%, the viability, T/C [7] was 22.5% and the viability, T/C [8] was 18.1%. For the same molecule, the viability, T/C [9] was 19.9%, the viability, T/C [10] was 20.4% and the viability, T/C (second compound 1 µM, first compound 0.01 µM) was 122%. It also gave a viability, T/C [11] of 59.5%, a viability, T/C [12] of 27.5% and a viability, T/C [13] of 21.1%. The viability, T/C [14] was 22.1%, the viability, T/C [15] was 22.6% and the viability, T/C (second compound 3.16 µM, first compound 0.01 µM) was 117%. For the same molecule, the viability, T/C [16] was 71.4%, the viability, T/C [17] was 24.8% and the viability, T/C [18] was 18.4%. The viability, T/C [19] was 21.8%, the viability, T/C [20] was 22.1% and the viability, T/C (second compound 10 µM, first compound 0.01 µM) was 92.8%. The viability, T/C [21] was 45.1%, the viability, T/C [22] was 24.1% and the viability, T/C [23] was 23.9%. The viability, T/C [24] was 24.2% and the viability, T/C [25] was 19.9%.

Work on `COC(=O)c1ccc2c(C(=Nc3ccc(N(C)C(=O)CN4CCN(C)CC4)cc3)c3ccccc3)c(O)[nH]c2c1` + C=CC(=O)N1CCN(c2nc(=O)n(-c3c(C)ccnc3C(C)C)c3nc(-c4c(O)cccc4F)c(F)cc23)C(C)C1 yielded an IC50 (second compound 0.1 µM) of 1340 nM, an IC50 (second compound 0.316 µM) of 1080 nM and an IC50 (second compound 1 µM) of 1050 nM. The IC50 (second compound 3.16 µM) was 922 nM, the IC50 (second compound 10 µM) was 984 nM and the viability, T/C [1] was 107%. For the same molecule, the viability, T/C [2] was 100%, the viability, T/C [3] was 90.5% and the viability, T/C [4] was 67%. The viability, T/C [5] was 0.52%, the viability, T/C [26] was 0.48% and the viability, T/C [6] was 120%. For the same molecule, the viability, T/C [7] was 103%, the viability, T/C [8] was 84.8% and the viability, T/C [9] was 63.4%. It also gave a viability, T/C [10] of 0.81%, a viability, T/C [27] of 0.29% and a viability, T/C [11] of 129%. It also gave a viability, T/C [12] of 116%, a viability, T/C [13] of 82.8% and a viability, T/C [14] of 65.8%. The viability, T/C [15] was 0.56%, the viability, T/C [28] was 0.21% and the viability, T/C [16] was 121%. It also gave a viability, T/C [17] of 134%, a viability, T/C [18] of 82.8% and a viability, T/C [19] of 56.4%. For the same molecule, the viability, T/C [20] was 0.33%, the viability, T/C [29] was 0.22% and the viability, T/C [21] was 119%. It also gave a viability, T/C [22] of 103%, a viability, T/C [23] of 103% and a viability, T/C [24] of 50%. It also gave a viability, T/C [25] of 0.49% and a viability, T/C [30] of 0.31%.

In the case of `Cn1nccc1Nc1nccc(-c2cc3c(s2)C(C)(C)N(CCN2CCOCC2)C3=O)n1` + C=CC(=O)N1CCN(c2nc(=O)n(-c3c(C)ccnc3C(C)C)c3nc(-c4c(O)cccc4F)c(F)cc23)C(C)C1, the IC50 (second compound 0.1 µM) is reported as 568 nM, the IC50 (second compound 0.316 µM) is reported as 601 nM and the IC50 (second compound 1 µM) is reported as 598 nM. The IC50 (second compound 3.16 µM) was 611 nM, the IC50 (second compound 10 µM) was 703 nM and the viability, T/C [1] was 94.2%. The viability, T/C [2] was 90.4%, the viability, T/C [3] was 63.4% and the viability, T/C [4] was 38.2%. The viability, T/C [5] was 5.19%, the viability, T/C [26] was 5.01% and the viability, T/C [6] was 109%. The viability, T/C [7] was 84.2%, the viability, T/C [8] was 74.9% and the viability, T/C [9] was 34%. For the same molecule, the viability, T/C [10] was 8.86%, the viability, T/C [27] was 5.22% and the viability, T/C [11] was 82%. It also gave a viability, T/C [12] of 104%, a viability, T/C [13] of 72.8% and a viability, T/C [14] of 30.6%. For the same molecule, the viability, T/C [15] was 6.74%, the viability, T/C [28] was 6.41% and the viability, T/C [16] was 93.3%. It also gave a viability, T/C [17] of 101%, a viability, T/C [18] of 81.1% and a viability, T/C [19] of 26.6%. The viability, T/C [20] was 9.57%, the viability, T/C [29] was 9.73% and the viability, T/C [21] was 91.2%. For the same molecule, the viability, T/C [22] was 95.3%, the viability, T/C [23] was 74.9% and the viability, T/C [24] was 39.3%. The viability, T/C [25] was 14.1% and the viability, T/C [30] was 11%.
